We go through 1 compound from patent US20260083676A1, “SPRAY-DRIED AMORPHOUS SOLID DISPERSIONS AND METHOD FOR PREPARATION” (Merck Patent GMbH, priority 2022, published 2026).

A short description of data set [1]: X-ray powder diffraction and DSC of spray-dried products. Type of data set: physicochemical. The following applies: raw material and spray dried dispersion with PVA 3-82; FIG. 24 to 26. The procedure: Diffractograms of powders were measured using an Miniflex 600 X-ray diffractometer (Rigaku, Japan) with CuKα radiation (λ=1.54 A). Samples were scanned in reflectance mode from 3° to 50° 2θ (deg), with a scan speed of 10° 2θ (deg)/min and a step size of 0.020° 2θ (deg) and results are shown in FIG. 2. The acceleration voltage and current are 45 kV and 15 mA.
The DSC thermograms of the samples as shown in FIG. 3 were collected using a DSC 3 (METTLER, U.S.) under a nitrogen gas flow of 50 ml/min. A total of 2-5 mg sample powder was filled into an aluminum Tzero pan (40 μL) and sealed with an aluminum Tzero lid. The sample was analyzed at a heating rate of 5° C./min from −25° C. to 230° C.
Spray-drying of ASDs has been prepared as described in Example 2, XRD measurements have been performed as described in Example 1.
Diffractograms of powders were measured using an Miniflex 600 X-ray diffractometer (Rigaku, Japan) with CuKα radiation (λ=1.54 A). Samples were scanned in reflectance mode from 3° to 50° 2θ (deg), with a scan speed of 10° 2θ (deg)/min and a step size of 0.020° 2θ (deg). The acceleration voltage and current are 45 kV and 15 mA.

Data set [2] in a line: Dissolution measurement of PROTAC ARV-110 ASD in phosphate buffer pH 6.8. In kind it is physicochemical. The following applies: phosphate buffer pH 6.8, room temperature, 0.2 mg/ml, 120 minutes; FIG. 23. As for the experimental part: For PROTAC ARV-110, the dissolution of the samples was determined at room temperature in phosphate buffer pH 6.8 as dissolution medium. 5 mg of bulk drug or spray dried powder samples equivalent to 5 mg of drug were weighted and placed into a 100 ml of Erlenmeyer flask, subsequently a magnetic stirring bar was added to the Erlenmeyer flask and stirred at 200 rpm, then 25 ml of dissolution medium was added. (concentration: 0.2 mg/ml)
At predetermined time points (5, 10, 20, 40, 60, 90, 120 min), 500 μl of sample were withdrawn from the dissolution vessels and immediately replaced by 500 μl of fresh dissolution medium. The dissolution samples were then filtered through a 0.45 μm filter. The sample is diluted with Eluent B (1:1). Finally, the samples were analyzed towards drug content using HPLC.
A C8-Column (Waters XBridge Column C8, 4.6×50 mm, 3.5 μm) column was used for the quantification.
The eluents are composed as follows: Eluent A: 0.1% formic acid in water; Eluent B: 0.1% formic acid in acetonitrile. Method: linear gradient of 10% to 90% Eluent B in 2 minutes at 1.7 ml/min flow rate.

As for `N#Cc1ccc(O[C@H]2CC[C@H](NC(=O)c3ccc(N4CCC(CN5CCN(c6cc7c(cc6F)C(=O)N(C6CCC(=O)NC6=O)C7=O)CC5)CC4)nn3)CC2)cc1Cl` (some centres unmarked) [ARV-110], the “solid state (XRD)” value in data set [1] was “crystalline”. Further, in data set [2], the dissolution entry was “neither the raw PROTAC 1, PROTAC 2 nor ARV110 show any measurable dissolution”.
